# Entries after “also recorded” stand apart in the source; their conditions may differ. Counter-ions that a name gives are not always drawn.
# Columns and labels:
# [1] = tested on: ischemia-induced [^3H]-Glu release; assay: in vitro ischemia model: ischemia-induced [^3H]-Glu release from [^3H]-Gln-loaded hippocampal slices; format: cell-based, rat
# Method: Rat hippocampus slices 350 μm thick were incubated in 3 ml of medium at 37° C. for 60 minutes. The medium contained 2 μM [^3H]-Gln to label the endogenous Gln pool. The slices then synthesized Glu. The slices were washed and then exposed to superfusion with a buffer for 50 minutes. At 5-minute intervals, [^3H]-Glu was extracted by anion exchange chromatography from a total of 15 superfusion samples and was measured by liquid scintillation counting. The fractional rates of [^3H]-Glu release were calculated from the [^3H]-Glu extracted from the superfusion samples and from the tissue slices after the superfusion.
# The model of endogenously produced [^3H]-Glu was likewise used to generate ischemic conditions in vitro. To make a slice “quasi ischemic”, oxygen and glucose were replaced by nitrogen and sucrose during the superfusion. Sucrose was used in place of […] glucose in order to maintain the osmolarity of the superfusion fluid. It is known that sucrose cannot be cleaved in vitro to glucose and fructose. Unlike the tests in which the [^3H]-Glu release was induced electrically, and in order to simulate an ischemia as well as possible, the [^3H]-Glu release was carried out during the incubation and superfusion at 37° C.
# Slices of 350 μm thickness were incubated at 37° C. for 60 min in 3 ml medium containing 2 μM [^3H]-Gln in order to label endogenous Gln pools. These slices subsequently were synthesizing Glu. The slices were washed and then superfused for 50 min with buffer. [^3H]-Glu was extracted from 15 5-min-superfusion samples and from the slices by anion-exchange chromatography and measured by liquid scintillation counting. Fractional rates of [^3H]-Glu release were calculated from extracted [^3H]-Glu in the superfusion samples and in the tissue slices obtained after superfusion.
# To reproduce in vitro ischemic conditions the model of endogenously formed [^3H]-Glu was also used. To make a slice “quasi-ischemic”, oxygen was replaced by nitrogen and glucose was replaced by sucrose during superfusion. Sucrose was used instead of glucose in order to maintain the osmolarity of the superfusion fluid without being cleaved into glucose and fructose in vitro. At variance to the experiments on electrically evoked [^3H]-Glu release and in order to mimic ischemia as close as possible the experiments on ischemia-induced [^3H]-Glu release were performed at 37° C. throughout incubation and superfusion.
# To assess the potency of glibenclamide concentration-inhibition curves of GBP-L on ischemia-induced [^3H]-Glu efflux were obtained in the absence and presence of 0.1 μM glibenclamide (see Jehle et al. 2000).
# [2] = tested on: electrically evoked release of Glu; assay: electrically evoked [^3H]-Glu release from [^3H]-Gln-loaded hippocampus slices; format: cell-based, rat
# [3] = tested on: mitochondrial KATP channels; details: for comparison; cited from earlier work
# [4] = tested on: potassium-evoked release of [^3H]-noradrenaline; details: cited from earlier work
structure (smiles),measurement,setting,value
"O=C(O)[C@@H]1CN[C@@H](C(=O)O)C1 (relative stereo) [PDC, L-trans-pyrrolidine-2,4-dicarboxylate]",response to the ischemia ([^3H]-Glu release),[1]; 100 μM,noticeably reduced; also recorded: diminishes the response to ischemia markedly
"NC1=N[C@H](O)[C@H]2[C@H]3O[C@]4(O)O[C@@H]([C@@H](O)[C@@]2(N1)[C@@H]4O)[C@]3(O)CO [TTX, tetrodotoxin, reference compound]",electrically evoked release of Glu (in words),[2],partly inhibited; also recorded: widely inhibited
CC1=NS(=O)(=O)c2cc(Cl)ccc2N1 [diazoxide],IC50,[3],50 µM
COc1ccc(Cl)cc1C(=O)NCCc1ccc(S(=O)(=O)NC(=O)NC2CCCCC2)cc1 [glibenclamide],pA2 value,[1]; glibenclamide 0.1 μM against GBP-L concentration-response curve,8.28
same,influence on the effect of GBP-L on ischemia-induced [^3H]-Glu release,[1]; glibenclamide 1 μM,completely abolished
Nc1cc(N2CCCCC2)nc(N)[n+]1OS(=O)(=O)[O-] [minoxidil sulfate],ischemia-induced [^3H]-Glu efflux (in words),[1]; 10 μM,significantly reduced
CC(C)C[C@H](CN)CC(=O)O [pregabalin],potassium-evoked release of [^3H]-noradrenaline (in words),[4],inhibitory effects

# — patent US6984659B2, “2-pyrrolidinone derivatives substituted at position 4 for reducing the extracellular glutamate level” (priority 1997, dated 2006)
